How the values were obtained:
[1] = molecular target: T1, Avi-KRAS G12D (1-169) GppNHp/RAF1 RBD-3xFLAG (52-151) (Homo sapiens, UniProt P01116, G12D); assay: Raf1-KRAS G12D-GppNHP disruption HTRF assay (Biological Example 1); format: binding
T1 construct: Avi-KRAS G12D (1-169)
Summary of the method: (§1)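 Compound disruption of KRAS-GppNHp/RAF1 RBD binding read by HTRF after two sequential 1 h room-temperature incubations (protein mix, then detection reagents), shaken at 700 rpm. Buffer Tris pH 7.5 with MgCl2, BSA, Tween and 10% DMSO; results given as percent activity relative to DMSO (100%).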

[2] = system: SW620 cells (KRAS G12V); assay: Cell-based pERK HTRF assay in SW620 cell (Biological Example 4); settings: Homo sapiens, SW-620, SW620 (KRAS G12V) cells, pERK HTRF
Summary of the method: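 SW620 (KRAS G12V) cells seeded at 3×10^4/well in RPMI, 10% FBS, then treated next day for 4 h with a 9-point half-log series from 1 μM top (0.25% DMSO). Lysates analyzed for pERK by HTRF (Eu cryptate/d2 antibodies, 4–24 h at room temperature), excitation 320 nm, emission 615 nm.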

[3] = molecular target: T2, Avi-KRAS G12V (1-169) GppNHp/RAF1 RBD-3xFLAG (52-151) (Homo sapiens, UniProt P01116, G12V); assay: Raf1-KRAS G12V-GppNHP disruption HTRF assay (Biological Example 1); format: binding
T2 construct: Avi-KRAS G12V (1-169)
T2 sequence (P01116 1-169 isoform P01116-2 G12V): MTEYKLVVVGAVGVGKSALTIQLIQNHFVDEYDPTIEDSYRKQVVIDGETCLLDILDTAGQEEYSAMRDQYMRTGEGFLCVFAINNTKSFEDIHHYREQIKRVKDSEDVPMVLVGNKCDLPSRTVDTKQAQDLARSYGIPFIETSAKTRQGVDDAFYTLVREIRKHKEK
Summary of the method: as §1

[4] = molecular target: T3, Avi-KRAS G12R (1-169) GppNHp/RAF1 RBD-3xFLAG (52-151) (Homo sapiens, UniProt P01116, G12R); assay: Raf1-KRAS G12R-GppNHP disruption HTRF assay (Biological Example 1); format: binding
T3 construct: Avi-KRAS G12R (1-169)
T3 sequence (P01116 1-169 isoform P01116-2 G12R): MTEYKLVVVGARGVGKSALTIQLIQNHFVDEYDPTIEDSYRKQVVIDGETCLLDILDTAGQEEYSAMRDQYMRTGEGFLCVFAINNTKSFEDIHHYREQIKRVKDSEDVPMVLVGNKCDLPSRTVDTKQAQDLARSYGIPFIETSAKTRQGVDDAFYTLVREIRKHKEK
Summary of the method: as §1

[5] = molecular target: T4, Avi-KRAS WT (1-169) GppNHp/RAF1 RBD-3xFLAG (52-151) (Homo sapiens, UniProt P01116); assay: Raf1-KRAS WT-GppNHP disruption HTRF assay (Biological Example 1); format: binding
T4 construct: Avi-KRAS WT (1-169)
T4 sequence (P01116 1-169 isoform P01116-2): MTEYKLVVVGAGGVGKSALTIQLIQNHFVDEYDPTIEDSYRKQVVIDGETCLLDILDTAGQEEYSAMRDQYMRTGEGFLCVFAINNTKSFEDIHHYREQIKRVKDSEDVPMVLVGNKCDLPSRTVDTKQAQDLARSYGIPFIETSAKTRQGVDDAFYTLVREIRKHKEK
Summary of the method: as §1

[6] = system: GP2d cells (KRAS G12D); assay: Cell-based pERK HTRF assay in GP2d cell (Biological Example 2); settings: GP2d, GP2d (KRAS G12D) cells, pERK HTRF
Summary of the method: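 60 min compound, 0.25% DMSO, 9-pt half-log curve from 1 μM or 100 nM; DMEM/10% FBS.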

[7] = KRAS G12D, GppNHp-loaded, Table 11
[8] = KRAS G12V, GppNHp-loaded, Table 11
[9] = KRAS G12R, GppNHp-loaded, Table 11
[10] = KRAS WT, GppNHp-loaded, Table 11

T1 sequence (P01116 1-169 isoform P01116-2 G12D): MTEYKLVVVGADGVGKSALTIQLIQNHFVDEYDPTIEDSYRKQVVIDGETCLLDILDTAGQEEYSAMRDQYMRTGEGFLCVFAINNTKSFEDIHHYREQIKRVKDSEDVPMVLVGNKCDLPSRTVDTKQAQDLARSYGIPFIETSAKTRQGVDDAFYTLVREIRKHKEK

| Compound | IC50 [1, 7] | IC50 [2] | IC50 [3, 8] | IC50 [4, 9] | IC50 [5, 10] | IC50 [6] | IC50 ([1]; KRAS G12D-GppNHp/RAF1 RBD HTRF) | IC50 ([3]; KRAS G12V-GppNHp/RAF1 RBD HTRF) | IC50 ([4]; KRAS G12R-GppNHp/RAF1 RBD HTRF) | IC50 ([5]; KRAS WT-GppNHp/RAF1 RBD HTRF) |
| --- | --- | --- | --- | --- | --- | --- | --- | --- | --- | --- |
| CC(C)C(=O)N1CC[C@@H](N(C)c2nc(OC[C@@]34CCCN3C[C@H](F)C4)nc3c(F)c(-c4ccc(F)c5sc(N)c(C#N)c45)c(C(F)(F)F)cc23)[C@H]1C [Compound 261] | 100 to 1000 nM | < 100 nM | 100 to 1000 nM | 100 to 1000 nM | < 100 nM | < 100 nM |  |  |  |  |
| N#Cc1c(N)sc2c(F)ccc(-c3c(C(F)(F)F)cc4c(N5CCCS(=O)(=O)CC5)nc(OC[C@@]56CCCN5C[C@H](F)C6)nc4c3F)c12 [Compound 263] | < 100 nM | < 100 nM | 100 to 1000 nM | < 100 nM | < 100 nM | < 100 nM |  |  |  |  |
| CN(c1nc(OC[C@@]23CCCN2C[C@H](F)C3)nc2c(F)c(-c3ccc(F)c4sc(N)c(C#N)c34)c(C(F)(F)F)cc12)C1CCOCC1 [Compound 264] | 100 to 1000 nM | 100 to 1000 nM | 1000 to 10000 nM | 100 to 1000 nM | 100 to 1000 nM | < 100 nM |  |  |  |  |
| C[C@@H]1C[C@H](O)CCN1c1nc(OC[C@@]23CCCN2C[C@H](F)C3)nc2c(F)c(-c3ccc(F)c4sc(N)c(C#N)c34)c(C(F)(F)F)cc12 [Compound 265] | 100 to 1000 nM | < 100 nM | 100 to 1000 nM | 100 to 1000 nM | 100 to 1000 nM | < 100 nM |  |  |  |  |
| N#Cc1c(N)sc2c(F)ccc(-c3c(C(F)(F)F)cc4c(N5CCOCC(O)C5)nc(OC[C@@]56CCCN5C[C@H](F)C6)nc4c3F)c12 (stereo partly drawn) [Compound 266] | < 100 nM | < 100 nM | 100 to 1000 nM | < 100 nM | < 100 nM | < 100 nM |  |  |  |  |
| N#Cc1c(N)sc2c(F)ccc(-c3c(C(F)(F)F)cc4c(N5CCCC(O)CC5)nc(OC[C@@]56CCCN5C[C@H](F)C6)nc4c3F)c12 (stereo partly drawn) [Compound 267] | < 100 nM | < 100 nM | 100 to 1000 nM | < 100 nM | 100 to 1000 nM | < 100 nM |  |  |  |  |
| CC(C)(O)[C@H]1CCN1c1nc(OC[C@@]23CCCN2C[C@H](F)C3)nc2c(F)c(-c3ccc(F)c4sc(N)c(C#N)c34)c(C(F)(F)F)cc12 [Compound 269] | 100 to 1000 nM | 100 to 1000 nM | 1000 to 10000 nM | 100 to 1000 nM | 100 to 1000 nM | < 100 nM |  |  |  |  |
| COC[C@H]1CCN1c1nc(OC[C@@]23CCCN2C[C@H](F)C3)nc2c(F)c(-c3ccc(F)c4sc(N)c(C#N)c34)c(C(F)(F)F)cc12 [Compound 270] | 100 to 1000 nM | 100 to 1000 nM | 100 to 1000 nM | 100 to 1000 nM | 100 to 1000 nM | 100 to 1000 nM |  |  |  |  |
| CN1CCN(c2nc(OC[C@@]34CCCN3C[C@H](F)C4)nc3c(F)c(-c4ccc(F)c5sc(N)c(C#N)c45)c(C(F)(F)F)cc23)CCC1=O [Compound 271] | 100 to 1000 nM | < 100 nM | 100 to 1000 nM | 100 to 1000 nM | 100 to 1000 nM | < 100 nM |  |  |  |  |
| N#Cc1c(N)sc2c(F)ccc(-c3c(C(F)(F)F)cc4c(N5CC[C@@H]5CF)nc(OC[C@@]56CCCN5C[C@H](F)C6)nc4c3F)c12 [Compound 272] | 100 to 1000 nM | < 100 nM | 100 to 1000 nM | 100 to 1000 nM | 100 to 1000 nM | < 100 nM |  |  |  |  |
| CC(=O)N1C[C@H](F)[C@@H](N(C)c2nc(OC[C@@]34CCCN3C[C@H](F)C4)nc3c(F)c(-c4ccc(F)c5sc(N)c(C#N)c45)c(C(F)(F)F)cc23)C1 [Compound 273] | 100 to 1000 nM | 100 to 1000 nM | 100 to 1000 nM | 100 to 1000 nM | 100 to 1000 nM | < 100 nM |  |  |  |  |
| CN(c1nc(OC[C@@]23CCCN2C[C@H](F)C3)nc2c(F)c(-c3ccc(F)c4sc(N)c(C#N)c34)c(C(F)(F)F)cc12)[C@@H]1CCCOC1 [Compound 274] | 100 to 1000 nM | < 100 nM | 100 to 1000 nM | 100 to 1000 nM | 100 to 1000 nM | < 100 nM |  |  |  |  |
| CC(=O)N1C[C@@H](N(C)c2nc(OC[C@@]34CCCN3C[C@H](F)C4)nc3c(F)c(-c4ccc(F)c5sc(N)c(C#N)c45)c(C(F)(F)F)cc23)C[C@H]1C [Compound 277] | 100 to 1000 nM | < 100 nM | 100 to 1000 nM | 100 to 1000 nM | 100 to 1000 nM | < 100 nM |  |  |  |  |
| CC(=O)N1CCCN(c2nc(OC[C@@]34CCCN3C[C@H](F)C4)nc3c(F)c(-c4ccc(F)c5sc(N)c(C#N)c45)c(C(F)(F)F)cc23)CC1 [Compound 278] | 100 to 1000 nM | < 100 nM | 100 to 1000 nM | 100 to 1000 nM | 100 to 1000 nM | < 100 nM |  |  |  |  |
| CC(=O)N1C[C@@H](N(C)c2nc(OC[C@@]34CCCN3C[C@H](F)C4)nc3c(F)c(-c4ccc(F)c5sc(N)c(C#N)c45)c(C(F)(F)F)cc23)C[C@@H]1C [Compound 279] |  | < 100 nM |  |  |  | < 100 nM | < 100 nM | 100 to 1000 nM | 100 to 1000 nM | 100 to 1000 nM |
| CN(c1nc(OC[C@@]23CCCN2C[C@H](F)C3)nc2c(F)c(-c3ccc(F)c4sc(N)c(C#N)c34)c(C(F)(F)F)cc12)[C@H]1CCCOC1 [Compound 280] |  | < 100 nM |  |  |  | < 100 nM | 100 to 1000 nM | 100 to 1000 nM | 100 to 1000 nM | 100 to 1000 nM |
| CN1CC[C@H](N(C)c2nc(OC[C@@]34CCCN3C[C@H](F)C4)nc3c(F)c(-c4ccc(F)c5sc(N)c(C#N)c45)c(C(F)(F)F)cc23)CC1=O [Compound 281] |  | < 100 nM |  |  |  | < 100 nM | 100 to 1000 nM | 1000 to 10000 nM | 100 to 1000 nM | 100 to 1000 nM |
| N#Cc1c(N)sc2c(F)ccc(-c3c(C(F)(F)F)cc4c(N5CCO[C@@H](CO)C5)nc(OC[C@@]56CCCN5C[C@H](F)C6)nc4c3F)c12 [Compound 282] |  | < 100 nM |  |  |  | < 100 nM | < 100 nM | 100 to 1000 nM | 100 to 1000 nM | < 100 nM |
| COC[C@H]1CN(c2nc(OC[C@@]34CCCN3C[C@H](F)C4)nc3c(F)c(-c4ccc(F)c5sc(N)c(C#N)c45)c(C(F)(F)F)cc23)CCO1 [Compound 283] |  | < 100 nM |  |  |  | < 100 nM | 100 to 1000 nM | 100 to 1000 nM | 100 to 1000 nM | 100 to 1000 nM |
| CC(=O)NCCN(C)c1nc(OC[C@@]23CCCN2C[C@H](F)C3)nc2c(F)c(-c3ccc(F)c4sc(N)c(C#N)c34)c(C(F)(F)F)cc12 [Compound 284] |  | < 100 nM |  |  |  | < 100 nM | 100 to 1000 nM | 100 to 1000 nM | 100 to 1000 nM | 100 to 1000 nM |

Source: US20260042764A1, “COMPOSITIONS AND METHODS FOR INHIBITION OF KRAS” (TheRas, Inc., priority 2022, published 2026)
